From patent US11325904B2, “Tropinol esters and related compounds to promote normal processing of APP” (BUCK INSTITUTE FOR RESEARCH ON AGING, priority 2011, dated 2022)

Test system: ectodomain of APP695 (MBP-eAPP230-624, eAPP230-624, TRX-eAPP575-624)
Assay: Surface plasmon resonance (Biacore T100) binding to APP ectodomain fragments
Description: We used surface plasmon resonance to assess binding of compound 14 to the APP ectodomain (eAPP) fragments was done using a Biacore T100. Biotinylated TRX-eAPP575-624 and other eAPP fragments were immobilized onto strepavidin-coated sensor CM5 chip.
Surface plasmon resonance data was obtained with a Biacore T100 for 0-50 μM compound 14 flowed at 1 μl per min in 1% DMSO, 20 mM sodium phosphate, 125 mM sodium chloride pH 7.4 over a CM5 chip cross-linked with proteins containing fragments of the ectodomain of APP695. The three proteins were MBP-eAPP230-624—a fusion protein containing maltose binding protein and residues 230-624 of the ectodomain of APP (90-kDa), eAPP230-624—a protein that contains only residues 230-624 (45-kDa), and TRX-eAPP575-624—a fusion protein containing thioredoxin and residues 575-624 of the ectodomain (20-kDa). The proteins were produced as described in Libeu et al., (2011) J. Alzheimer's Dis., 25(3): 547-566. […] FIG. 11 compares the normalized response for the all three proteins. Comparison of the normalized curves between the proteins was done with PRISM (GraphPad Inc).

Cc1nnc(C(=O)O[C@H]2C[C@H]3CC[C@@H](C2)N3C)o1 [Compound 14]
binding to the ectodomain of APP (0-50 μM compound, 1% DMSO, 20 mM sodium phosphate, 125 mM sodium chloride pH 7.4, CM5 chip): has affinity for APP and can directly bind to the ectodomain of APP
normalized response curves compared between the eAPP fragments (MBP-eAPP230-624 vs eAPP230-624 vs TRX-eAPP575-624, comparison with PRISM): not significantly different
